What was measured:
[1] = test system: Imiquimod (IMQ)-induced mouse model of psoriasis
Procedure: (a) Experimental Scheme of three-day IMQ treatment with seven-day systemic therapy. (b) (upper panel) change in ear thickness between control (PBS; crosses), IMQ-treated (squares), and systemic MTX therapy receiving (1 mg/kg (upward triangles), 2 mg/kg (downward triangles), 5 mg/kg (diamonds)) animals. (Lower panels) statistical analysis of ear thickness differences between groups between days 4-7.
(a) (upper panel), change in ear thickness between control (PBS, crosses), IMQ-treated (squares), and systemic therapy receiving in addition to IMQ, 2 mg/kg MTX (upward triangles), GNPs containing 5.5 mg/kg Au (downward triangles), and MTX-GNP containing 2 mg/kg MTX and 5.5 mg/kg Au (diamonds). (Lower panels) statistical analysis of ear thickness differences between groups between days 4-7. […] Data is pooled from 2-3 independent experiments, 2 to 5 mice per condition and represented as mean±standard deviation.
Clinical efficacy and in vivo tolerability were assessed against relevant controls for both systemic (subcutaneous injection) and topical administration.
First, we evaluated tolerance of mice to MTX with a dose escalation setup (FIG. 2b).

[2] = Formulation into Carbopol 980 gel: precipitation / homogeneity; type: physicochemical; conditions: for precipitation / homogeneity in 2% Carbopol 980 gel: Carbopol 980 adjusted to pH 7.4 prior to addition
Procedure: Gels were prepared by dispersing 1-3% w/v of Carbopol polymer (w/v) into purified water with constant mixing and thus allowed to hydrate for 5 hours. Care was taken to avoid air entrapment by agitating the solution slowly on a rocker during preparation of the gel. After 5 hours, the pH of the gel was adjusted to pH 7.4 using triethylamine (Sigma-Aldrich, Lot #STBF616V) to neutralise the pH and turn the solution into a gel (triethanolamine is contemplated herein as a suitable alternative to triethylamine).
For production of methotrexate-GNP hydrogel, 2% w/v Carbopol®980 was initially dispersed for 5 hours with constant mixing. […] Plain methotrexate drug gel was prepared by dissolving MTX-PEG3-NH2 in water and adjusting the pH to pH 4.5. The MTX-PEG3-NH2 solution was added to the previously made 2% Carbopol®980 solution.
The method for formulating gold nanoparticles into Carbopol®980 gels was optimised by testing the effects of pH and speed of addition of nanoparticles using control [α-Gal][PEG8COOH]@Au GNPs. […] The gels were all stored at 4° C.
For production of methotrexate-GNP hydrogel, 2% w/v Carbopol®980 was dispersed for 5 hours with constant mixing. The pH of the Carbopol®980 solution was adjusted to pH 7.4 to produce a clear gel. […] Plain methotrexate drug gel was prepared by adding MTX-PEG3-NH2 dissolved in water to the pH 7.4 adjusted Carbopol®980 gel (2%).

SMILES	animal wellbeing ([1]; mouse, in vivo)	tolerability / systemic toxicity (liver enzyme measurements, daily weight monitoring) ([1]; mouse, in vivo, sc, 2 mg/kg)	IMQ-induced inflammation (ear thickness) ([1]; systemic (subcutaneous), 2 mg/kg MTX daily)	ear thickness / inflammation control ([1]; systemic MTX 5 mg/kg daily)	precipitation / homogeneity in 2% Carbopol 980 gel [2]	precipitation / homogeneity in 2% Carbopol 980 gel ([2]; listed as modified methotrexate)	precipitation on addition to 2% Carbopol 980 solution ([2]; acidic addition (GNPs pH 2.6; MTX-PEG3-NH2 pH 4.5), Carbopol not neutralised)
CN(Cc1cnc2nc(N)nc(N)c2n1)c1ccc(C(=O)N[C@@H](CCC(=O)O)C(=O)O)cc1 [MTX, Methotrexate]	irrevocably impaired animal wellbeing	tolerable	no significant inflammation control	clinically effective	–	–	–
CN(Cc1cnc2nc(N)nc(N)c2n1)c1ccc(C(=O)NC(CCC(=O)NCCCOCCOCCOCCCN)C(=O)O)cc1 (stereo not shown) [MTX-PEG3-NH2, 4-[(3-{2-[2-(3-aminopropoxy)ethoxy]ethoxy}propyl)carbamoyl]-2-[(4-{[(2,4-diaminopteridin-6-yl)methyl](methyl)amino}phenyl)formamido]butanoic acid]	–	–	–	–	no precipitation	without precipitation	small level of yellow precipitation

Source: US20220047718A1, “Nanoparticle-Based Therapy of Inflammatory Disorders” (priority 2018, published 2022)
